Where “and” joins values, the source holds several entries; their conditions need not be identical. Equal values may be shown once. Calls of active or inactive are those of the source. No rule for the calls is given here.

This assay concerns INS-1E Gaussia luciferase insulin secretion, no glucose, luminescence. As to the kind of experiment: insulin secretion activators without glucose, dose response, counter-screen for glucose-dependent insulin secretion activators, cell-based, INS-1E, Gaussia luciferase, luminescence, cherry-pick (AID 977606).
For the molecule `COc1ccc(C(=O)NC(=S)Nc2ccc3c4c(cccc24)CC3)cc1OC`, the AC40 is 6.85 µM.

For `NC(N)=N/N=C/c1ccc(N(c2ccccc2)c2ccccc2)cc1`, the AC40 is 4.06 µM. The same measure for `O=c1c2ccccc2sn1-c1ccccc1F`: 1.22 µM; for `Cc1cc(Cl)ccc1Oc1nc(-c2ccccc2)ncc1S(C)(=O)=O`: 3.04 µM; for `O=C(NCC1OCCc2ccccc21)c1ccc(NC(=O)c2ccc(Cl)cc2)cc1` (stereo not drawn): 6.61 µM. In the case of `CC(C)(C(=O)N1CCC1(C)C(=O)NS(=O)(=O)c1ccc(Br)cc1)c1ccccc1` (stereo not drawn), the AC40 is 10.3 µM. For `CCc1ccc(OCC(=O)NC(=S)Nc2ccc(F)cc2)c(Br)c1` the value was 6.76 µM; for `COc1ccc(C2=NN(C(C)=O)C(c3cccs3)C2)cc1OC` (stereo not drawn), > 35 µM (inactive); for `Cc1ccc2oc(-c3cccc(NC(=O)Cc4cccs4)c3)nc2c1`, 2.42 µM. With `Cc1cccc(-c2ccc(C3[C@@H]4CN(C(=O)C5CCCCC5)C[C@H]3N4)cc2)c1` (stereo partly drawn), the AC40 is 11.3 µM. For `COc1ccccc1CCn1cnc(-c2cccc(F)c2)c1C(C)C` the value was 11.6 µM; for `COc1ccc(/C=N/NC(=O)c2ccc(COc3ccccc3Cl)o2)c(OC)c1C`, 4.97 µM; for `COc1ccc(C)cc1NCc1cc(=O)oc2cc(-c3ccccc3)c(O)cc12`, 23.6 µM. For `O=C(Cn1cnc2c(OCc3ccccc3)ncnc21)NCc1ccccn1` the value was 31.1 µM; for `CCC(=O)Nc1ccc(Cl)c(NC(=S)NC(=O)COc2ccc(Cl)cc2)c1`, 5.38 µM; for `CN1CCN(C2Cc3ccccc3Sc3cc(C(F)(F)F)ccc32)CC1` (stereo not drawn), 7.2 µM. The same measure for `O=C(Nc1nc(-c2ccc(-c3ccccc3)cc2)cs1)C1=COCCO1`: 4.37 µM; for `COc1cc2nc(N3CCN(c4cc(C)ccc4C)CC3)nc(N)c2cc1OC`: 8.68 µM; for `CCc1nc2ccc(C(=O)NCCCN3CCCC3=O)cn2c1N(CCC(C)C)CCN(C)C`: > 35 µM (inactive).

Regarding `CCCNC(=O)Cn1sc2nc(C)cc(C)c2c1=O`, the AC40 was 2.31 µM. Take `O=C(NCc1ccccn1)c1coc(=O)c(Br)c1`: the AC40 was 1.59 µM. On to `CC(C)(c1ccccc1)c1ccc(OCC(O)CNC2CCN(Cc3ccccc3)CC2)cc1` (stereo not drawn), for which the AC40 is 5.4 µM. As to `O=c1c2ccccc2sn1-c1ccc(F)cc1`, the AC40 was 2.43 µM. For `COCc1[nH]nc2c1C(c1ccc(C)cc1)NC2=O` (stereo not drawn) the value was 28.5 µM; for `CCCCCCC1CCC(C(=O)Nn2c(C)nc3ccccc3c2=O)CC1` (stereo not drawn), 14.8 µM; for `COc1cc(OC)c2c3c(c(C4CCCCC4)nc2c1)CCC3`, 7.44 µM. The same measure for `COC(=O)C1=C(C)N(Cc2ccc(C(F)(F)F)cc2)C(=NCC2CC2)NC1c1ccccc1` (stereo not drawn): 9.63 µM. Turning to `COc1cccc(CN2C[C@@H]3N[C@H](C2)C3c2ccc(-c3ccccc3OC)cc2)c1` (stereo partly drawn), the AC40 is 7.67 µM.

For the molecule `C[C@H]1CN([C@@H](C)CO)S(=O)(=O)c2ccc(C#Cc3ccccc3)cc2O[C@@H]1CN(C)C(=O)CN(C)C`, the AC40 is 11.1 µM. For `CC(=O)Oc1ccccc1C(=O)OCCN=C1NS(=O)(=O)c2ccccc21` the value was > 35 µM (inactive); for `Cc1cccc(-c2ccc(C3[C@@H]4CN(Cc5cccc(F)c5)C[C@H]3N4)cc2)c1` (stereo partly drawn), 4.33 µM and 2.3 µM. For `NS(=O)(=O)c1ccc(NC(=O)COC(=O)c2cn(-c3ccccc3)nc2-c2ccc(F)cc2)cc1` the value was 4.09 µM. The same measure for `COc1cc2sc3ccc(C#Cc4ccc(N)cc4)cc3c(=O)c2cc1OC`: 19 µM. Consider `C=CCn1c(SCc2ccccc2)nc2c1c(=O)[nH]c(=O)n2C`, for which the AC40 is 21.2 µM. Take `CCOc1ccc2nc(NCCNC(=O)Nc3ccccc3)c(C#N)cc2c1`: the AC40 was 8.22 µM. The same measure for `Cc1cc(Nc2ccc(Cl)cc2)nc(NCc2ccccc2)n1`: 6.67 µM; for `Fc1cccc(-c2ccc(C3[C@@H]4CN(Cc5ccccc5F)C[C@H]3N4)cc2)c1` (stereo partly drawn): 6.11 µM.

In the case of `OC(CNCCC1C=Nc2ccccc21)Cn1c2ccc(Cl)cc2c2cc(Cl)ccc21` (stereo not drawn), the AC40 was 9.56 µM.

Consider `O=C(Nc1ccc(F)cc1)Nc1cc(OCC(F)(F)F)cc(OCC(F)(F)F)c1`, for which the AC40 was 5.78 µM.

In the case of `NS(=O)(=O)c1ccc(NC(=S)N2CCN(c3ccc(Cl)c(Cl)c3)CC2)cc1`, the AC40 is 3.74 µM.

For `COc1ccccc1NC(=O)N1CCCCN2[C@@H](CO)[C@@H](c3ccc(C#CC4CCCC4)cc3)[C@@H]2C1`, the AC40 was 9.17 µM. The same measure for `COc1ccc(CC2c3cc(OC)c(OC)cc3CCN2C)cc1O` (stereo not drawn): 14.7 µM; for `COc1ccc(/C=N/N(C(C)=O)c2nc(-c3ccc(C)cc3)cs2)cc1`: 1.98 µM.

Turning to `COc1ccc(C[C@H]2CN3C(=NC[C@@H]3Cc3ccccc3)N2CCNC(=O)CCC2CCCCC2)cc1`, the AC40 is 13.5 µM. On to `CCCCCCn1c(N(CC)CC)nc2c1c(=O)[nH]c(=O)n2C`, for which the AC40 was 30.8 µM. For `C=CCOc1ccc(-c2nc3c(c(=O)[nH]c(=O)n3CCCC)n2C)cc1Br` the value was 10.1 µM; for `N#Cc1cccc(-c2ccc(C3[C@H]4CNC[C@@H]3N4Cc3cc(-c4ccccc4)on3)cc2)c1` (stereo partly drawn), 9.78 µM; for `Cc1ccc(NC(=O)c2cc(-c3ccccc3O)n[nH]2)cc1C`, > 35 µM (inactive).

`CCOC(=O)c1ccc(Nc2ncnc3ccc(C)cc23)cc1`: the AC40 was 11.5 µM. The same measure for `COC(=O)C1=C(C)N(Cc2cccc(C(F)(F)F)c2)C(=NCc2ccc(OC)cc2)NC1c1cccc(Cl)c1` (stereo not drawn): 5.16 µM; for `Cc1cccc(S(=O)(=O)N2C[C@@H]3N[C@H](C2)C3c2ccc(-c3ccccc3F)cc2)c1` (stereo partly drawn): 2.91 µM; for `COc1ccc(NC(=O)Cc2c(SC)c3ccccc3n2Cc2ccccc2)cc1`: 12.5 µM. The same measure for `N#Cc1cccc(-c2ccc([C@@H]3[C@@H]4CN(S(=O)(=O)c5ccc(-c6ccccc6)cc5)C[C@H]3N4)cc2)c1`: 1.89 µM; for `O=C(CC1c2ccccc2Oc2ccccc21)Nc1ccccc1C(F)(F)F`: 5.33 µM.

Turning to `OC(CNCCc1ccc(C(F)(F)F)cc1)COc1cccc2ccccc12` (stereo not drawn), the AC40 is 4.92 µM.

For `Cc1nn(Cc2ccc(Cl)cc2Cl)c(Cl)c1C(=O)Nc1ccc(OC(F)F)cc1`, the AC40 is 5.64 µM.

Regarding `Cc1cc(C)n(-c2nc(NCCN(C)C)c3c4c(sc3n2)CCCC4)n1`, the AC40 is 10.7 µM. The same measure for `CC(C)(C)c1ccc(OCC(=O)Nc2ccc(-c3nc4cccnc4o3)cc2)cc1`: 7.74 µM. `NS(=O)(=O)c1ccc(N=Cc2c(O)n(C3CCCCC3)c(=O)n(C3CCCCC3)c2=O)cc1`: the AC40 was 15.1 µM. For `COc1ccc(-c2cccc(C(=O)Nc3ccc(C)cc3)c2)cc1` the value was 13.6 µM; for `CC1(C(=O)NCc2cccc3ccccc23)CCN1Cc1ccc(OC(F)(F)F)cc1` (stereo not drawn), 9.49 µM. Regarding `CCOC(=O)c1ccccc1NC(=O)c1n[nH]c(=O)c2ccccc12`, the AC40 is 3.05 µM. In the case of `Fc1ccc(-c2ccc(C3[C@@H]4CN(Cc5cccc(F)c5)C[C@H]3N4)cc2)cc1` (stereo partly drawn), the AC40 is 5.18 µM. The same measure for `NS(=O)(=O)c1ccc(CCNc2nc3c(-c4cccc(F)c4)nnn3c3ccccc23)cc1`: 2.03 µM; for `Cc1ccc(-n2nc3ccc(NC(=O)c4ccco4)cc3n2)cc1`: 8.86 µM. On to `Fc1ccccc1-c1ccc(C2[C@@H]3CN(Cc4ccccc4)C[C@H]2N3)cc1` (stereo partly drawn), for which the AC40 was 7.19 µM. For `Cc1cc(NC(=O)c2ccccc2F)n(-c2nc3ccccc3[nH]2)n1` the value was 4.6 µM; for `CC(=O)Nc1sc(N/N=C\c2cccc(Cl)c2)nc1-c1cccs1`, 4.69 µM; for `O[C@H]1C[C@H](c2ccccc2)N(CC2CCCCC2)C[C@@H]1n1cc(C2CC2)nn1`, 8.64 µM.

For the molecule `Cc1ccc(-n2ncc3c(=O)n(CC(=O)Nc4cccc(Cl)c4)cnc32)cc1C`, the AC40 is 6.76 µM. The same measure for `O=c1c2ccccc2sn1-c1ccccc1`: 1.79 µM; for `Fc1ccc(/C=N/c2c(-c3ccc(F)cc3)nc3n2CCS3)cc1`: 6.12 µM; for `Cc1ccc(C(OCC(O)CNCc2ccc(F)cc2)c2ccccc2)cc1` (stereo not drawn): 8.22 µM. As to `CCCCCCN1C[C@H](n2cc(COC(=O)c3ccccc3)nn2)[C@@H](O)C[C@@H]1c1ccc(C)cc1`, the AC40 is 8.37 µM. The same measure for `CC(C)Cn1nc(-c2ccccc2)c2ccccc2c1=O`: 8.13 µM. The same measure for `CCOc1ccc(-n2nnnc2-c2nc3ccccc3s2)cc1`: 12.2 µM; for `COC(=O)C1=C(C)N(Cc2cccc(C(F)(F)F)c2)C(=NCc2ccc(C(F)(F)F)cc2)NC1c1ccccc1` (stereo not drawn): 8.93 µM; for `CC(C)(C)c1cc(NCCCn2ccnc2)n2ncc(-c3ccc(Cl)cc3)c2n1`: 4.39 µM.

Consider `Cc1cc(C)cc(NC(=O)Cc2ccc(-n3cccc3)cc2)c1`, for which the AC40 is 6.9 µM. For `Cc1ccccc1Cn1ccc(NC(=O)c2cc3nc(-c4ccco4)cc(C(F)(F)F)n3n2)n1` the value was 7.7 µM; for `COc1cccc(-c2ccc(C3[C@@H]4CN(Cc5cccc(F)c5)C[C@H]3N4)cc2)c1` (stereo partly drawn), 7.22 µM. For `CCN(CC)c1ccc(N=Cc2c(O)n(Cc3ccccc3)c(=O)[nH]c2=O)cc1` the value was 7.08 µM; for `COc1ccc(NC(=O)c2sc3nc(N4CCOCC4)c4c(c3c2N)CC(C)(C)OC4)c(OC)c1`, 6.06 µM; for `Cc1cc(S(=O)(=O)Nc2nc(CN3CCOCC3)nc3sc4c(c23)CCC4)ccc1F`, > 35 µM (inactive). The same measure for `CCCNC(=O)c1nnsc1S(=O)c1ccc(Cl)cc1` (stereo not drawn): 1.16 µM; for `CCOC(=O)c1c(NC(=O)Cn2nc(C(F)(F)F)cc2C)sc(C)c1C`: 5.96 µM; for `O=C(N/N=C/c1ccco1)c1cc(-c2ccc3ccccc3c2)n[nH]1`: 3.97 µM. Take `CCN=C1NC(c2ccc(C(F)(F)F)cc2)C(C(=O)OC)=C(C)N1Cc1cccc(C(F)(F)F)c1` (stereo not drawn): the AC40 was 3.88 µM. With `CC(C)CC#Cc1ccc2c(c1)O[C@H](CN(C)C(=O)C1CCCCC1)[C@@H](C)CN([C@@H](C)CO)S2(=O)=O`, the AC40 was 15.8 µM.

For `O=C(CCN1CCOCC1)c1ccccc1`, the AC40 is 10.3 µM. The same measure for `COc1ccc(CC(N)c2csc(NC(=O)Nc3ccc(C(C)C)cc3)n2)cc1` (stereo not drawn): 3.58 µM. The same measure for `CCCCc1c(Cc2ccccc2)ncn1CCc1ccccc1OC`: 9.34 µM; for `CCCCc1c(-c2ccccc2OC)ncn1Cc1ccc(C)cc1`: 11.9 µM.

For the origin of these results see PubChem BioAssay AID977606 (Broad Institute, 2014).
